The record followed here is patent US20100184684A1, “ANTIBACTERIAL AND ANTIFUNGAL PEPTIDES” (C3 JIAN, INC., priority 2009, published 2010).

One experiment deals with A. baumannii. The format is cell-based, Acinetobacter baumannii. On the procedure: (§1) In certain embodiments the MIC assays are performed as described herein in the Examples. For each organism, the media and growth conditions utilized is detailed in Table 8.
(§2) In certain embodiments the MIC assays are performed as follows: For each organism, the media and growth conditions utilized is detailed in Table 8.

The subject of another experiment is B. subtilis. Format: cell-based, Bacillus subtilis. As to the method: as §1, §2
The next experiment deals with MRSA. The format is cell-based, Staphylococcus aureus. The conditions noted are these: MRSA; BHI supplemented with 2% glucose, 37° C., aerobic, 10^5 CFU/ml. As to the method:
as §1, §2

In another experiment the test system is C. albicans. The format is cell-based, Candida albicans. As to the method: as §1, §2
In another experiment the test system is S. epidermidis. The format is cell-based. On the procedure: as §1, §2
Another experiment concerns T. rubrum. Format: cell-based, Trichophyton rubrum. On the procedure: as §1, §2
The subject of the next experiment is P. aeruginosa. The format is cell-based, Pseudomonas aeruginosa. On the procedure:
as §1, §2

For a further experiment, the system named is A. niger. Format: cell-based, Aspergillus niger. As to the method: as §1, §2
The subject of the next experiment is C. difficile. Format: cell-based, Clostridium difficile. On the procedure: as §1, §2
For the next experiment, the system named is C. jeikeium. Format: cell-based, Corynebacterium jeikium. As to the method:
as §1, §2

The next experiment deals with S. mutans. The format is cell-based, Streptococcus mutans. As to the method:
as §1, §2

The next experiment deals with F. nucleatum. Format: cell-based, Fusobacterium nucleatum. As to the method: as §1, §2
The test system of another experiment is P. gingivalis. The format is cell-based, Porphyromonas gingivalis. As to the method:
as §1, §2

The next experiment deals with A. naeslundii. The format is cell-based, Actinomyces naeslundii. On the procedure:
as §1, §2

The subject of the next experiment is M. furfur. Briefly: MIC assay. The format is cell-based, Malassezia furfur. As to conditions: ATCC medium 1072, 37° C., aerobic, 10^5 CFU/ml. As to the method:
as §1, §2

A further experiment relates to S. pneumoniae. Format: cell-based, Streptococcus pneumoniae. On the procedure:
as §1, §2

The subject of another experiment is E. coli. Format: cell-based, Escherichia coli. As to the method:
as §1, §2

In brackets after ≈: the same amount, converted by molar mass. Where two headings read alike, the source gives them in different places. Ends that are not written are not given here. Peptide text beside a SMILES is read from it.

In the case of `CC[C@H](C)[C@H](NC(=O)CNC(=O)[C@@H](N)CCSC)C(=O)N[C@H](C(=O)N[C@@H](C)C(=O)NCC(=O)N[C@H](C(=O)N[C@H](C(=O)N[C@@H](CCCCN)C(=O)N[C@@H](Cc1ccccc1)C(=O)N[C@H](C(=O)N[C@@H](CCCCN)C(=O)NCC(=O)N[C@@H](CC(C)C)C(=O)N[C@H](C(=O)N[C@@H](CCC(=O)O)C(=O)N[C@@H](CCCCN)C(=O)N[C@@H](Cc1ccccc1)C(=O)N[C@H](C(=O)NCC(=O)N[C@@H](CCCCN)C(=O)O)[C@@H](C)O)[C@@H](C)CC)[C@@H](C)CC)[C@@H](C)CC)[C@@H](C)CC)[C@@H](C)CC` [PF-006], the MIC in the experiment on A. baumannii (A. baumannii, LB, 30° C., anaerobic, 10^5 CFU/ml) is 50 µM (≈ 114 µg/mL); in the experiment on B. subtilis (B. subtilis, BHI, 30° C., aerobic, 10^5 CFU/ml), 25 µM (≈ 56.9 µg/mL); with MRSA, 50 µM (≈ 114 µg/mL).
Consider `CC[C@H](C)[C@H](NC(=O)[C@H](CCCCN)NC(=O)[C@H](C)NC(=O)[C@H](Cc1ccccc1)NC(=O)[C@@H](NC(=O)[C@H](C)NC(=O)[C@H](CC(C)C)NC(=O)[C@H](CO)NC(=O)[C@@H](N)CC(C)C)[C@@H](C)O)C(=O)N[C@@H](Cc1ccccc1)C(=O)N[C@@H](CCSC)C(=O)N[C@H](C(=O)N[C@@H](CCCNC(=N)N)C(=O)N[C@@H](CO)C(=O)N[C@@H](CC(N)=O)C(=O)N[C@@H](Cc1c[nH]c2ccccc12)C(=O)N[C@@H](CO)C(=O)N[C@@H](CC(C)C)C(=O)N[C@@H](CCCCN)C(=O)N[C@@H](CCCNC(=N)N)C(=O)N[C@@H](Cc1ccccc1)C(=O)N[C@@H](CC(N)=O)C(=O)N[C@@H](CCCNC(=N)N)C(=O)N[C@@H](CC(C)C)C(=O)O)[C@@H](C)O` [PF-278] (H-LSLATFAKIFMTRSNWSLKRFNRL-OH; N-terminus and C-terminus assumed), for which the MIC with C. albicans, with S. epidermidis and in the experiment with T. rubrum was 50 µM each time.
Consider `CC[C@H](C)[C@H](NC(=O)[C@H](CCCCN)NC(=O)[C@@H](NC(=O)[C@H](CCCCN)NC(=O)[C@H](CCCCN)NC(=O)[C@@H](NC(=O)[C@H](CCCCN)NC(=O)[C@@H]1CCCN1C(=O)[C@H](CCCNC(=N)N)NC(=O)[C@@H]1CCCN1C(=O)[C@H](CCC(N)=O)NC(=O)[C@H](CCC(N)=O)NC(=O)[C@H](CC(N)=O)NC(=O)[C@H](CC(C)C)NC(=O)[C@H](Cc1c[nH]cn1)NC(=O)[C@H](Cc1ccccc1)NC(=O)[C@H](CCC(N)=O)NC(=O)[C@@H](NC(=O)[C@@H](N)Cc1ccc(O)cc1)[C@@H](C)CC)C(C)C)[C@@H](C)CC)C(=O)N[C@@H](Cc1ccccc1)C(=O)N[C@@H](CC(C)C)C(=O)O` [PF-531] (H-YIQFHLNQQPRPKVKKIKIFL-OH; N-terminus and C-terminus assumed), for which the MIC with A. baumannii amounted to 25 µM (≈ 66 µg/mL); with P. aeruginosa it was 50 µM (≈ 132 µg/mL); against B. subtilis, 25 µM (≈ 66 µg/mL); in the experiment with S. epidermidis it was 50 µM (≈ 132 µg/mL); with A. niger, 25 µM (≈ 66 µg/mL); against C. difficile, 12.5 µM (≈ 33 µg/mL). For the same compound, the results for the MIC with C. jeikeium, against S. mutans and with T. rubrum were 6.25 µM (≈ 16.5 µg/mL), 12.5 µM (≈ 33 µg/mL) and 50 µM (≈ 132 µg/mL), respectively.
Regarding `CC[C@H](C)[C@H](NC(=O)[C@H](CCC(N)=O)NC(=O)[C@H](CCCCN)NC(=O)[C@H](CC(C)C)NC(=O)[C@H](CC(C)C)NC(=O)[C@@H]1CCCN1C(=O)[C@H](CCSC)NC(=O)[C@H](CC(C)C)NC(=O)[C@H](CO)NC(=O)[C@H](CCCCN)NC(=O)CNC(=O)[C@@H](N)CCCCN)C(=O)N[C@@H](CC(N)=O)C(=O)N[C@@H](CCC(N)=O)C(=O)N[C@@H](Cc1c[nH]c2ccccc12)C(=O)NCC(=O)N[C@@H](CCCCN)C(=O)N[C@@H](CC(C)C)C(=O)N[C@@H](Cc1ccc(O)cc1)C(=O)N[C@@H](CC(C)C)C(=O)O` [PF-C239] (H-KGKSLMPLLKQINQWGKLYL-OH; N-terminus and C-terminus assumed), the MIC in the experiment on F. nucleatum turned out to be 50 µM (≈ 118 µg/mL); with P. gingivalis, 50 µM (≈ 118 µg/mL); with A. naeslundii, 25 µM (≈ 59 µg/mL); in the experiment with S. mutans, 50 µM (≈ 118 µg/mL).
For `CC[C@H](C)[C@H](NC(=O)[C@@H](NC(=O)[C@H](CO)NC(=O)CN)C(C)C)C(=O)N[C@@H](CCCCN)C(=O)N[C@@H](CCCCN)C(=O)N[C@@H](CCCNC(=N)N)C(=O)N[C@@H](CCCNC(=N)N)C(=O)N[C@@H](CCCCN)C(=O)N[C@@H](CCCNC(=N)N)C(=O)N[C@@H](CCSC)C(=O)N[C@@H](CO)C(=O)N[C@@H](CCCCN)C(=O)N[C@@H](CCCCN)C(=O)N[C@@H](CCCCN)C(=O)N[C@@H](Cc1c[nH]cn1)C(=O)N[C@@H](CCCNC(=N)N)C(=O)N[C@@H](CCCCN)C(=O)N[C@@H](CCSC)C(=O)N[C@@H](CC(C)C)C(=O)N[C@@H](CCCNC(=N)N)C(=O)N[C@@H](CCCNC(=N)N)C(=O)N[C@H](C(=O)N[C@@H](CCCNC(=N)N)C(=O)N[C@H](C(=O)N[C@@H](CCC(N)=O)C(=O)N[C@@H](CCCNC(=N)N)C(=O)N[C@@H](CCCNC(=N)N)C(=O)N[C@@H](CCCCN)C(=O)N[C@@H](CC(C)C)C(=O)NCC(=O)N[C@@H](CCCCN)C(=O)O)C(C)C)[C@@H](C)O` [PF-S028], the MIC stood at 50 µM (≈ 202 µg/mL) against P. aeruginosa (P. aeruginosa, MH, 37° C., aerobic, 10^5 CFU/ml); 2.5 µM (≈ 10.1 µg/mL) in the experiment on M. furfur; 25 µM (≈ 101 µg/mL) against S. epidermidis (S. epidermidis, BHI supplemented with 0.25% glucose, 37° C., aerobic, 10^5 CFU/ml); 25 µM (≈ 101 µg/mL) in the experiment with P. gingivalis (P. gingivalis, Columbia broth, 37° C., anaerobic, 10^5 CFU/ml); 50 µM (≈ 202 µg/mL) in the experiment with S. mutans (S. mutans, TH supplemented with 1% sucrose, 37° C., anaerobic, 10^5 CFU/ml); 50 µM (≈ 202 µg/mL) with T. rubrum (T. rubrum, Potato Dextrose Agar, 25° C., aerobic, 10^5 CFU/ml). The MIC with MRSA is 50 µM (≈ 202 µg/mL).
With “MPVSKKRYMLSSAYATALGICYGQVATDEKESEITAIPDLLDYLSVEEYLL [PF-C163]”, the MIC in the experiment on S. epidermidis, against P. gingivalis and in the experiment with A. naeslundii was 50 µM in each case.
With “TKKIELKRFVDAFVKKSYENYILERELKKLIKAINEELPTK [PF-600]”, the MIC against S. pneumoniae and against E. coli was 50 µM throughout.

The term MIC denotes the lowest concentration that inhibits growth of the organism. Lower therefore signals inhibition by little substance.
